# Key:
# [1] = Body weight of mice in xenograft studies; format: in vivo
# Method: Female athymic nude mice and SCID/Beige mice (5-8 weeks of age) were obtained from Charles River Laboratory and were housed in Innovive IVC disposable cages on HEPA filtered ventilated racks with ad libitum access to rodent chow and water. Five million cells in 100 μL, serum-free medium were implanted subcutaneously in the right flank region of the mouse. Karpas299 cells were implanted into the SCID/Beige mice. KM12 cells, NIH3T3 EML4-ALK wild type mutant cells, and NIH3T3 SCD4-ROS1 wild type mutant cells were implanted into the athymic nude mice, respectively. All models except KM12 were implanted with 50% matrigel (Corning, Inc) in the medium. Tumor size and body weight were measured on designated days. Tumor size was measured with an electronic caliper and tumor volume was calculated as the product of length*width^2*0.5.
# Female athymic nude mice and SCID/Beige mice (5-8 weeks of age) were obtained from Charles River Laboratory and were housed in Innovive IVC disposable cages on HEPA filtered ventilated racks with ad libitum access to rodent chow and water. Five million cells in 100 μL serum-free medium were implanted subcutaneously in the right flank region of the mouse. Ba/F3 EML4-ALK wild type and G1202R mutant cells, Ba/F3 CD74-ROS1 wild type and G2032R mutant cells were implanted into the SCID/Beige mice. NIH3T3 CD74-ROS1 G2032 mutant cells, NIH3T3 LMNA-TRKA wild type and G595R mutant cells were implanted into the athymic nude mice, respectively. All models were implanted with 50% matrigel (Corning, Inc) in the medium. Tumor size and body weight were measured on designated days. Tumor size was measured with an electronic caliper and tumor volume was calculated as the product of length*width^2*0.5.
# NCI-H2228 cell line = test: Cell proliferation assay (CellTiter-Glo); format: cell-based; conditions: Homo sapiens, 72 hours, EML4-ALK fusion gene
# Method: Two thousand cells per well were seeded in 384 well white plate for 24 hrs, and then treated with compounds for 72 hours (37° C., 5% CO2). Cell proliferation was measured using CellTiter-Glo luciferase-based ATP detection assay (Promega) following the manufactures's protocol. IC50 determinations were performed using GraphPad Prism software (GraphPad, Inc., San Diego, Calif.).
# [2] = tested on: Ba/F3 SDC4-ROS1 G2032R cell line; test: Cell proliferation assay (CellTiter-Glo); format: cell-based; conditions: Mus musculus, BaF3; 72 hours
# AKT = test: Immunoblotting downstream signaling, HCC78 cells; format: cell-based; conditions: Homo sapiens; HCC78 cell line; read-out: downstream AKT phosphorylation IC50
# Method: (§1) NSCLC cell line H2228 (harboring endogenous EML4-ALK fusion gene), HCC78 cells (harboring endogenous SLC34A2-ROS1 fusion gene), Karpas-299 cells (harboring endogenous NPM-ALK fusion gene) or SET-2 (harboring endogenous JAK2V617F activating mutation) were cultured in RPMI medium, and KM12 (harboring endogenous TPM3-TRKA fusion gene) cell line was cultured in DMEM medium, both supplemented with 10% fetal bovine serum and 100 U/mL of penicillin/streptomycin. Ba/F3 and NIH3T3 cells stably expressing ALK or ROS1 (WT or mutant) were culture as mentioned above. […] Protein lysates (approximately 20 μg) was resolved on 4-12% Bolt Bis-Tris precasted gels with MES running buffer (Life Technologies), transferred to nitrocellulose membranes using Trans-Blot Turbo Transfer System (Bio-Rad) and detected with antibodies targeting phosphorylated ALK Y1604 (Cell Signaling Technology), total ALK (Cell Signaling Technology), phosphorylated ROS1 and total ROS1 (Cell Signaling Technology), phosphorylated TRK A/B (Cell Signaling Technology), total TRKA antibody (Santa Cruz Biotechnology), phosphorylated STAT3 and STAT5, total STAT3 and STAT5 (Cell Signaling Technology), phosphorylated AKT (Cell Signaling Technology), total AKT (Cell Signaling Technology), phosphorylated ERK (Cell Signaling Technology), total ERK (Cell Signaling Technology) and Tubulin (Sigma). […]
# STAT3 = test: Immunoblotting downstream signaling, HCC78 cells; format: cell-based; conditions: Homo sapiens; HCC78 cell line; read-out: downstream STAT3 phosphorylation IC50
# Method: as §1
# IGFR = molecular target: T1, IGFR (Homo sapiens, UniProt P08069); test: Biochemical kinase assay (Reaction Biology); conditions: 10 μM ATP
# T1 construct: purchased Reaction Biology Corporation (contract assay)
# T1 sequence (P08069 31-1367): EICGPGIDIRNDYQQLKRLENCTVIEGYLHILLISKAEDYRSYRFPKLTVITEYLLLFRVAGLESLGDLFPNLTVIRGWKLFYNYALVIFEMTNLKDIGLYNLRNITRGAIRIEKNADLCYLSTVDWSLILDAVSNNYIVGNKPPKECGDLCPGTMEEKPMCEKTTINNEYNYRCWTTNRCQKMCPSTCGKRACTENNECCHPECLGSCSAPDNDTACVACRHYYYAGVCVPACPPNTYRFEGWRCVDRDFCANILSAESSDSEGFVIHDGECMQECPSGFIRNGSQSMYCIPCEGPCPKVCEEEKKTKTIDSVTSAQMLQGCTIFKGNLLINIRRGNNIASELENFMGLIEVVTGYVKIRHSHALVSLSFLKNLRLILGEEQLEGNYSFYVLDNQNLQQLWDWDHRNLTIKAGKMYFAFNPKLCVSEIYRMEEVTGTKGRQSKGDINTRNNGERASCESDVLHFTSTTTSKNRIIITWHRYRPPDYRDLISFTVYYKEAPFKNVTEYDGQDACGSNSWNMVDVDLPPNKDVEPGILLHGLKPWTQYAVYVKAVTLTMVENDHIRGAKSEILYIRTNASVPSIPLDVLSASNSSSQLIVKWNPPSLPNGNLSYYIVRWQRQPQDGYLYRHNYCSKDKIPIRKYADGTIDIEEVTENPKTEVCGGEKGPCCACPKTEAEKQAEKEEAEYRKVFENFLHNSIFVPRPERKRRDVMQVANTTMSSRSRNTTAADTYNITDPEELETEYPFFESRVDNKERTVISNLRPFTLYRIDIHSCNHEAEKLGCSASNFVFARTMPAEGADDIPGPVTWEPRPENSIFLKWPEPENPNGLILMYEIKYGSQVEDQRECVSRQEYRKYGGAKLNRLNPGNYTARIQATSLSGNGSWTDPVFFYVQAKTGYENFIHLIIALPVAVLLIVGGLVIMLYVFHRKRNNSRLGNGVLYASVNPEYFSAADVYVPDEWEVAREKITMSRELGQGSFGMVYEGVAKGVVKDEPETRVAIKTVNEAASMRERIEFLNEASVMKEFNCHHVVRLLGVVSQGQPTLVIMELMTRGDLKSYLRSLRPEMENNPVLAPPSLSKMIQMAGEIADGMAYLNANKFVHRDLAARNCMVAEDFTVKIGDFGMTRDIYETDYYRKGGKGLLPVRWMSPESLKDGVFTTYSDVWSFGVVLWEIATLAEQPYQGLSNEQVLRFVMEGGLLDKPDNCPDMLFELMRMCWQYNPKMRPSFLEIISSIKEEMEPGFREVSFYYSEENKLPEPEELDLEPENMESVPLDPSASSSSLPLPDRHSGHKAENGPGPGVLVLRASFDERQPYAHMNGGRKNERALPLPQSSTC
# Method: (§2) Specific kinase/substrate pairs along with required cofactors were prepared in reaction buffer; 20 mM Hepes pH 7.5, 10 mM MgCl2, 1 mM EGTA, 0.02% Brij35, 0.02 mg/ml BSA, 0.1 mM Na3VO4, 2 mM DTT, 1% DMSO (for specific details of individual kinase reaction components see Supplementary Table 2). Compounds were delivered into the reaction, followed ˜20 minutes later by addition of a mixture of ATP (Sigma, St. Louis Mo.) and ^33P ATP (Perkin Elmer, Waltham Mass.) to a final concentration of 10 μM. Reactions were carried out at room temperature for 120 min, followed by spotting of the reactions onto P81 ion exchange filter paper (Whatman Inc., Piscataway, N.J.). […] IC50 values and curve fits were obtained using Prism (GraphPad Software).
# JAK1 = molecular target: T2, JAK1 (Homo sapiens, UniProt P23458); test: Biochemical kinase assay (Reaction Biology); conditions: 10 μM ATP
# T2 construct: purchased Reaction Biology Corporation (contract assay)
# T2 sequence (P23458 whole entry): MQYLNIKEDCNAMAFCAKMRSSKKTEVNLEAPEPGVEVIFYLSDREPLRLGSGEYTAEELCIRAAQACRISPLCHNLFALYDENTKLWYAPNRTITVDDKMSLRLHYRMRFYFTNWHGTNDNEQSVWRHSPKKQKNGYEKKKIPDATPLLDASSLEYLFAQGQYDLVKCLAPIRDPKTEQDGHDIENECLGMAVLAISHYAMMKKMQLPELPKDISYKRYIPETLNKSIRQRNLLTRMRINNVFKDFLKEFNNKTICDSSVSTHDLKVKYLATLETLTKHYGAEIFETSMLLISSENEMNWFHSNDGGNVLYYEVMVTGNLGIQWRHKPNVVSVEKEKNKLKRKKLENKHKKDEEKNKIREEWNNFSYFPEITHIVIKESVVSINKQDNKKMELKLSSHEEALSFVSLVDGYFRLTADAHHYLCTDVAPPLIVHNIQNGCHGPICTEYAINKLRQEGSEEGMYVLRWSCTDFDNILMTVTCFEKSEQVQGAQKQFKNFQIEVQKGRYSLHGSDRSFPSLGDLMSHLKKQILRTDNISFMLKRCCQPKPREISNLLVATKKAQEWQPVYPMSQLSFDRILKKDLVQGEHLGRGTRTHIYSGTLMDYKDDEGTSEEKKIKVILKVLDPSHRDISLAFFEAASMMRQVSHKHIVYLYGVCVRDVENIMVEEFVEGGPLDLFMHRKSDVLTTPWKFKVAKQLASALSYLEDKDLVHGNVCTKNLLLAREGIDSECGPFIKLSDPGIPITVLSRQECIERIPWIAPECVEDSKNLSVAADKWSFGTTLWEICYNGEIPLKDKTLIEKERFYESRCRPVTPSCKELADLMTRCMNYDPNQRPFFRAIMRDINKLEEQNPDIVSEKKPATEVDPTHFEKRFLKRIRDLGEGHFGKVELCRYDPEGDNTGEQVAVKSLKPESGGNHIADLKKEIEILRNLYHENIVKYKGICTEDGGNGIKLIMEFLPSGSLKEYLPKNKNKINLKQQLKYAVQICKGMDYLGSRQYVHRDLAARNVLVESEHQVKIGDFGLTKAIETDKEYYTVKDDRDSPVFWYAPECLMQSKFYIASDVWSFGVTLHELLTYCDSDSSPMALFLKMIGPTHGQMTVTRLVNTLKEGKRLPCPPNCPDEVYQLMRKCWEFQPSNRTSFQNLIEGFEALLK
# Method: as §2
structure (smiles),measurement,setting,value
"C[C@H]1CNC(=O)c2cnn3ccc(nc23)N[C@H](C)c2cc(F)ccc2O1 [Compound 1, (7S,13R)-11-fluoro-7,13-dimethyl-6,7,13,14-tetrahydro-1,15-ethenopyrazolo[4,3-f][1,4,8,10]benzoxatriazacyclotridecin-4(5H)-one]",Body weight of the mice,"[1]; Ba/F3 CD74-ROS1 G2032R model, 15 and 75 mg/kg BID, 11 days",no body weight loss was observed
same,Body weight of the mice,"[1]; Ba/F3 CD74-ROS1 WT model, 15 and 75 mg/kg BID, 12 days",no body weight loss was observed
same,Body weight of the mice,"[1]; Ba/F3 EML4-ALK G1202R model, 15 and 75 mg/kg BID, 17 days",no body weight loss was observed
same,Body weight of the mice,"[1]; Ba/F3 EML4-ALK WT model, 15 and 75 mg/kg BID, 14 days",no body weight loss was observed
same,Body weight of the mice,"[1]; KM12 model Example 13, 15 and 75 mg/kg BID, seven days",No loss of body weight
same,Body weight of the mice,"[1]; KM12 model Example 15, 1, 3 and 15 mg/kg BID, seven days",No loss of body weight
same,Body weight of the mice,"[1]; Karpas 299 model, 15 and 50 mg/kg BID, seven days",no body weight loss was observed
same,Body weight of the mice,"[1]; NIH3T3 EML4-ALK WT model, 15 and 50 mg/kg BID, 12 days",no body weight loss was observed
same,Body weight of the mice,"[1]; NIH3T3 LMNA-TRKA G595R model, 3, 15 and 60 mg/kg BID, five days",no body weight loss was observed
same,Body weight of the mice,"[1]; NIH3T3 LMNA-TRKA WT model, 3 and 15 mg/kg BID, five days",No loss of body weight
same,IC50,NCI-H2228 cell line,73 nM
same,IC50,[2],5 nM
same,IC50,AKT,1 to 3 nM
same,IC50,STAT3,1 to 3 nM
same,IC50,IGFR,111 nM
same,IC50,JAK1,19 nM
